Source: US20130210846A1, “USE OF NOVEL PAN-CDK INHIBITORS FOR TREATING TUMORS” (BAYER INTELLECTUAL PROPERTY GMBH, priority 2010, published 2013)

Columns and labels:
[1] = system: DU145; assay: Proliferation assay DU145; assay type: cell-based, human; details: DU145, prostate carcinoma; 4 days, crystal violet
Procedure: (§1) Cultivated human tumor cells (originally obtained from ATCC, HeLa-MaTu and HeLa-MaTu-ADR, originally obtained from Epo GmbH, Berlin, Germany) were plated at a density of 1000 to 5000 cells/measuring point, depending on the growth rate of the cell line, in a 96-well multititer plate in 200 μl of growth medium (DMEM/HAMS F12, 2 mM L-glutamine, 10% fetal calf serum). After 24 hours the cells of one plate (zero-point plate) were stained with crystal violet (see below), whereas the medium of the other plates was replaced with fresh culture medium (200 μl), to which the test substances had been added at various concentrations (0 μM, and in the range 0.01-30 μM; the final concentration of the solvent dimethyl sulfoxide was 0.5%). The cells were incubated for 4 days in the presence of the test substances. Cellular proliferation was determined by staining the cells with crystal violet: the cells were fixed by adding 20 μl/measuring point of an 11% glutaraldehyde solution for 15 min at room temperature. After washing the fixed cells with water three times, the plates were dried at room temperature. The cells were stained by adding 100 μl/measuring point of a 0.1% crystal violet solution (pH adjusted to pH3 by adding acetic acid). After washing the stained cells with water three times, the plates were dried at room temperature. The dye was dissolved by adding 100 μl/measuring point of a 10% acetic acid solution. The extinction was determined photometrically at a wavelength of 595 nm. The percentage change in cell growth was calculated by standardization of the measured values to the extinction values of the zero-point plate (=0%) and the extinction of the untreated (0 μM) cells (=100%). The measured data were standardized to 0% inhibition (cell proliferation without inhibitor) and 100% inhibition (zero-point plate). The IC50 values were determined by means of a 4-parameter fit using the company's own software.
(§2) The substances were examined in the following cell lines which, in an exemplary manner, represent the stated indications: […]

[2] = system: MCF7; assay: Proliferation assay MCF7; assay type: cell-based, human; details: MCF7, estrogen receptor-positive mamma carcinoma; 4 days, crystal violet
Procedure: as §1, §2

[3] = system: Caco-2; assay: Proliferation assay Caco-2; assay type: cell-based, human; details: Caco-2, colon/rectum carcinoma; 4 days, crystal violet
Procedure: as §1, §2

[4] = system: NCI-H460; assay: Proliferation assay NCI-H460; assay type: cell-based, human; details: NCI-H460, non-small-cell bronchial carcinoma; 4 days, crystal violet
Procedure: as §1, §2

[5] = system: HeLa-MaTu; assay: Proliferation assay HeLa-MaTu; assay type: cell-based, human; details: cervix carcinoma, 4 days, crystal violet
Procedure: as §1, §2

[6] = system: HeLa-MaTu-ADR; assay: Proliferation assay HeLa-MaTu-ADR; assay type: cell-based, human; details: cervix carcinoma, 4 days, crystal violet
Procedure: as §1, §2

[7] = target: T1, VEGF receptor tyrosine kinase-2 (VEGF-R2) (Homo sapiens, UniProt P35968); assay: VEGF receptor-2 kinase assay (Assay 3); assay type: biochemical; details: 8 μM ATP, poly-(Glu4Tyr), 10 min 22° C.; read-out: VEGF-R2 (Assay 3) Concentration for half-maximal inhibition of the enzyme activity, IC50
T1 construct: GST; made in house; host or cells: baculovirus-infected insect cells (Sf9)
T1 sequence (P35968 20-1356, species assumed): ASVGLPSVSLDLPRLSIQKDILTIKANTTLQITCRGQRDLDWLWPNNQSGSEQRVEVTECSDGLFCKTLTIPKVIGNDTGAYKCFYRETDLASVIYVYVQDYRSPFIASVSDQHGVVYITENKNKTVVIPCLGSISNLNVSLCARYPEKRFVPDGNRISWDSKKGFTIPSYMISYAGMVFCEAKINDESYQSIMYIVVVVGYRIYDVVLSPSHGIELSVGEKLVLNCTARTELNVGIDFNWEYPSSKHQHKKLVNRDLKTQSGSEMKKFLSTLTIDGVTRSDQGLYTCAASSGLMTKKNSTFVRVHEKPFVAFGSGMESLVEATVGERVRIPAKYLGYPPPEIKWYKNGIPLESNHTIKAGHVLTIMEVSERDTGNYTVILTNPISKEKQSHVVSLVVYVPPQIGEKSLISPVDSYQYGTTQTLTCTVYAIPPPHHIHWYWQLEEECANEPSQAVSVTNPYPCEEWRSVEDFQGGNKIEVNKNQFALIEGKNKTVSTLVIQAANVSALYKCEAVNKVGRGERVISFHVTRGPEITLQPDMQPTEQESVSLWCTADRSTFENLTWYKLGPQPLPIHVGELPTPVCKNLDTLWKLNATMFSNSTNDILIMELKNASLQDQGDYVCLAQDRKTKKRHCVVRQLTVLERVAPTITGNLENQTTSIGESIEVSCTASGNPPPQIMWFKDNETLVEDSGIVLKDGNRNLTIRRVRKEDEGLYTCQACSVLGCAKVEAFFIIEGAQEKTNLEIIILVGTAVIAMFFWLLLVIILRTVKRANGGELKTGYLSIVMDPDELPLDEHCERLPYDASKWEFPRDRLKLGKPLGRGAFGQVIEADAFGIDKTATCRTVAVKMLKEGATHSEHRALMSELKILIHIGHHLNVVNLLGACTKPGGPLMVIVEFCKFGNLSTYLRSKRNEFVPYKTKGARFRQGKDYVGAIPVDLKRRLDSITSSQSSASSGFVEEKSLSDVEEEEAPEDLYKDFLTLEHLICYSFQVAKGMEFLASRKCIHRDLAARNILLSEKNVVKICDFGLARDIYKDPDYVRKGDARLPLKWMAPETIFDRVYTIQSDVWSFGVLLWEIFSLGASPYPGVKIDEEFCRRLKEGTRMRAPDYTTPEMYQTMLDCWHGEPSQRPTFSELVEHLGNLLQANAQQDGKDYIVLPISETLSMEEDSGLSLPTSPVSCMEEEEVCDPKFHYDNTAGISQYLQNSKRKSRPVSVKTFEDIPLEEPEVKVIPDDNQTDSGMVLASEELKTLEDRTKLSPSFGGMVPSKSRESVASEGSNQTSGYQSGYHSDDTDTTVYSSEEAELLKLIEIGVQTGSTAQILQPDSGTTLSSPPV
Procedure: Recombinant VEGF receptor tyrosine kinase-2 was purified as GST fusion protein from baculovirus-infected insect cells (Sf9). Poly-(Glu4Tyr), used as kinase substrate, was purchased from Sigma.
VEGF receptor tyrosine kinase (90 ng/measuring point) was incubated for 10 min at 22° C. in the presence of various concentrations of test substances (0 μM, and within the range 0.001-30 μM) in 30 μl assay buffer [40 mM Tris/HCl pH5.5, 10 mM MgCl2, 1 mM MnCl2, 3 μM Na ortho-vanadate, 1.0 mM dithiothreitol, 8 μM adenosine triphosphate (ATP), 0.96 μg/measuring point poly-(Glu4Tyr), 0.2 μCi/measuring point ^33P-gamma ATP, 1.4% dimethyl sulfoxide]. The reaction was stopped by adding EDTA solution (250 mM, pH 8.0, 15 μl/measuring point).
(§3) From each reaction mixture, 15 μl was applied to P30 filter strips (from Wallac), and unincorporated ^33P-ATP was removed by washing the filter strips three times, for 10 min each time, in 0.5% phosphoric acid. After drying the filter strips for 1 hour at 70° C., the filter strips were covered with scintillator strips (MeltiLex™ A, from Wallac) and stoved for 1 hour at 90° C. The amount of incorporated ^33P (substrate phosphorylation) was determined by scintillation measurement in a gamma-radiation measuring instrument (Wallac). The measured data were standardized to 0% inhibition (enzyme reaction without inhibitor) and 100% inhibition (all assay components except enzyme). The IC50 values were determined by means of a 4-parameter fit using the company's own software.

[8] = target: T2, CDK1/CycB (Homo sapiens, UniProt P06493); assay: CDK1/CycB kinase assay (Assay 1); assay type: biochemical; details: 0.5 μM ATP, histon IIIS, 10 min 22° C.; read-out: CDK1/CycB (Assay 1) Concentration for half-maximal inhibition of the enzyme activity, IC50
T2 construct: purchased ProQinase GmbH, Freiburg, Germany; host or cells: baculovirus-infected insect cells (Sf9)
T2 sequence (P06493 whole entry): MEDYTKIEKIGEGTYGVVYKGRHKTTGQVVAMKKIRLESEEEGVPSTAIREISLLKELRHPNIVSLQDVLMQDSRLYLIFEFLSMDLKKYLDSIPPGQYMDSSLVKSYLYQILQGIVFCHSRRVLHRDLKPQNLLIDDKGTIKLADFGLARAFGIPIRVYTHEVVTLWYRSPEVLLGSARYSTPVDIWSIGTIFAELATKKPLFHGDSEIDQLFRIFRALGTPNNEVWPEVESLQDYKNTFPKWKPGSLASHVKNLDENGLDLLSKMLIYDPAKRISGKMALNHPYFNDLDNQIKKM
T2 sequence (P14635 whole entry partner): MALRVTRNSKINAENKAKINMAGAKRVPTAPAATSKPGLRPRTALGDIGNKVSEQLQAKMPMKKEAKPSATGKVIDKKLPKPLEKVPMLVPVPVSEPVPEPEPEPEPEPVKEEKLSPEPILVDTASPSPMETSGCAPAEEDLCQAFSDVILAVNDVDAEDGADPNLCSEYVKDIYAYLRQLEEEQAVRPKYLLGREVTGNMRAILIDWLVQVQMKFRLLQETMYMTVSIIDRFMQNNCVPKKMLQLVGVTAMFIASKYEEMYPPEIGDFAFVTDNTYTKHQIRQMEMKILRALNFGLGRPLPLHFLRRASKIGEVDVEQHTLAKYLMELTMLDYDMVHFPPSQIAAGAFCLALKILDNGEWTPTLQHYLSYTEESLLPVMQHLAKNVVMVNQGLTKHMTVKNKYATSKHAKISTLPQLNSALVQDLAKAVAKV
Procedure: Recombinant CDK1 and CycB-GST fusion proteins, purified from baculovirus-infected insect cells (Sf9), were purchased from ProQinase GmbH, Freiburg, Germany. The histon HIS used as kinase substrate is commercially available from Sigma.
CDK1/CycB (200 ng/measuring point) was incubated for 10 min at 22° C. in the presence of various concentrations of test substances (0 μM, and within the range 0.01-100 μM) in assay buffer [50 mM Tris/HCl pH8.0, 10 mM MgCl2, 0.1 mM Na ortho-vanadate, 1.0 mM dithiothreitol, 0.5 μM adenosine triphosphate (ATP), 10 μg/measuring point histon IIIS, 0.2 μCi/measuring point ^33P-gamma ATP, 0.05% NP40, 1.25% dimethyl sulfoxide]. The reaction was stopped by adding EDTA solution (250 mM, pH 8.0, 15 μl/measuring point).
as §3, with “μl were” for “μl was”

[9] = target: T3, CDK2/CycE (Homo sapiens, UniProt P24941); assay: CDK2/CycE kinase assay (Assay 2); assay type: biochemical; details: 0.5 μM ATP, histon IIIS, 10 min 22° C.; read-out: CDK2/CycE (Assay 2) Concentration for half-maximal inhibition of the enzyme activity, IC50
T3 construct: purchased ProQinase GmbH, Freiburg, Germany; host or cells: baculovirus-infected insect cells (Sf9)
Procedure: Recombinant CDK2 and CycE-GST fusion proteins, purified from baculovirus-infected insect cells (Sf9), were purchased from ProQinase GmbH, Freiburg, Germany. Histon HIS, used as kinase substrate, was purchased from Sigma.
The reaction was stopped by adding EDTA solution (250 mM, pH 8.0, 15 μl/measuring point).
as §3, with “The measured data were standardized to 0% inhibition (enzyme reaction without inhibitor) and 100% inhibition (all assay components except enzyme).” left out

| Structure (SMILES) | IC50 [1] | IC50 [2] | IC50 [3] | IC50 [4] | IC50 [5] | IC50 [6] | IC50 [7] | IC50 [8] | IC50 [9] | IC50 ([5]; Homo sapiens, 96 h) |
| --- | --- | --- | --- | --- | --- | --- | --- | --- | --- | --- |
| CCS(=N)(=O)c1ccc(Nc2ncc(C(F)(F)F)c(N[C@H](C)C(C)(C)O)n2)cc1 (mixture of isomers) [Example 7-SI-1, (RS)—S-Ethyl-S-(4-{[4-{[(R)-2-hydroxy-1,2-dimethylpropyl]amino}-5-(trifluoromethyl)pyrimidin-2-yl]amino}phenyl)sulfoximide] | 152 nM | 106 nM | 196 nM | 119 nM | 27 nM | 112 nM |  |  |  |  |
| C[C@@H](O)[C@@H](C)Oc1nc(Nc2ccc(S(C)(=N)=O)cc2)ncc1C(F)(F)F (mixture of isomers) [Example 2-SI-1, (RS)—S-(4-{[4-{[(1R,2R)-2-Hydroxy-1-methylpropyl]oxy}-5-(trifluoromethyl)pyrimidin-2-yl]-amino}phenyl)-S-methylsulfoximide] | 28 nM | 39 nM | 80 nM | 68 nM |  | 32 nM |  |  |  |  |
| CCS(=N)(=O)c1ccc(Nc2ncc(C(F)(F)F)c(N[C@H](C)C(C)(C)O)n2)cc1 (single isomer, unassigned) [Example 7-SI-1] |  |  |  |  |  |  | 143 nM | 24 nM | 4 nM |  |
| C[C@@H](O)[C@@H](C)Oc1nc(Nc2ccc(S(=N)(=O)C3CC3)cc2)ncc1C(F)(F)F (mixture of isomers) [Example 1-SI-1, (RS)—S-Cyclopropyl-S-(4-{[4-{[(1R,2R)-2-hydroxy-1-methylpropyl]oxy}-5-(trifluoromethyl)-pyrimidin-2-yl]amino}phenyl)sulfoximide] | 45 nM | 48 nM | 80 nM | 48 nM |  | 35 nM | 114 nM |  |  | 13 nM |
| C[C@@H](O)[C@@H](C)Nc1nc(Nc2ccc(S(C)(=N)=O)cc2)ncc1C(F)(F)F (mixture of isomers) [Example 8-SI-1, (RS)—S-(4-{[4-{[(1R,2R)-2-Hydroxy-1-methylpropyl]amino}-5-(trifluoromethyl)pyrimidin-2-yl]-amino}phenyl)-S-methylsulfoximide] | 64 nM |  |  |  |  |  |  |  |  |  |
| CCS(=N)(=O)c1ccc(Nc2ncc(C(F)(F)F)c(N[C@H](C)C(C)(C)O)n2)cc1 (mixture of isomers) [Example 7-SI-2, (RS)—S-Ethyl-S-(4-{[4-{[(R)-2-hydroxy-1,2-dimethylpropyl]amino}-5-(trifluoromethyl)pyrimidin-2-yl]amino}phenyl)sulfoximide] | 42 nM | 39 nM | 67 nM | 51 nM | 10 nM | 36 nM |  |  |  |  |
| C[C@@H](Nc1nc(Nc2ccc(S(C)(=N)=O)cc2)ncc1C(F)(F)F)C(C)(C)O (mixture of isomers) [Example 9-SI-2, (RS)—S-(4-{[4-{[(1R)-2-Hydroxy-1,2-dimethylpropyl]amino}-5-(trifluoromethyl)pyrimidin-2-yl]amino}phenyl)-S-methylsulfoximide] | 185 nM | 271 nM | 200 nM | 112 nM | 21 nM | 114 nM |  |  |  |  |
| C[C@@H](Nc1nc(Nc2ccc(S(C)(=N)=O)cc2)ncc1C(F)(F)F)C(C)(C)O (mixture of isomers) [Example 9-SI-1, (RS)—S-(4-{[4-{[(1R)-2-Hydroxy-1,2-dimethylpropyl]amino}-5-(trifluoromethyl)pyrimidin-2-yl]amino}phenyl)-S-methylsulfoximide] | 34 nM | 89 nM | 61 nM | 34 nM |  | 19 nM |  |  |  |  |
| C[C@@H](Nc1nc(Nc2ccc(S(C)(=N)=O)cc2)ncc1C(F)(F)F)C(C)(C)O (single isomer, unassigned) [Example 9-SI-2] |  |  |  |  |  |  | 154 nM | 17 nM | 3 nM |  |
| C[C@@H](O)[C@@H](C)Nc1nc(Nc2ccc(S(C)(=N)=O)cc2)ncc1C(F)(F)F (mixture of isomers) [Example 8-SI-2, (RS)—S-(4-{[4-{[(1R,2R)-2-Hydroxy-1-methylpropyl]amino}-5-(trifluoromethyl)pyrimidin-2-yl]-amino}phenyl)-S-methylsulfoximide] | 30 nM | 23 nM | 41 nM | 28 nM | 10 nM | 24 nM |  |  |  |  |
| CCS(=N)(=O)c1ccc(Nc2ncc(C(F)(F)F)c(N[C@H](C)[C@@H](C)O)n2)cc1 (mixture of isomers) [Example 6-SI-1, (RS)—S-Ethyl-S-(4-{[4-{[(1R,2R)-2-hydroxy-1-methylpropyl]amino}-5-(trifluoromethyl)-pyrimidin-2-yl]amino}phenyl)sulfoximide] | 100 nM | 59 nM | 120 nM | 50 nM |  | 35 nM | 73 nM | 10 nM | 5 nM |  |
